For data set [1], the system named is T. b. brucei Lab 110 EATRO. The data set is described as follows: In vitro trypanocidal activity, bloodforms in HMI-18 medium, Coulter counts. The format is cell-based, Trypanosoma brucei brucei. As to conditions: read-out: Lab 100 EATRO IC50.
Procedure: The compounds were tested against trypanosome isolates grown as blood forms in HMI-18 medium containing 20% horse serum in 24 well microplates at 37° C. in 5% CO2. Wells were inoculated with 1×10^5 trypanosomes. […] One-half the volume was replaced daily. Cell counts were made daily with a Coulter Counter, Model Z1 (Beckman Coulter, Miami, Fla., USA). Cells were diluted with Isoton I buffer (Beckman Coulter) and the aperture was standardized at 5.14 μm. Background checks were performed daily on 1:10 dilutions of medium. Counts, normalization, and coincident counts were accounted for by the standardized Coulter analysis program. Occasionally, hemocytometer counts were performed as a check on the validity of the Coulter program. IC50 values were determined after 48 h from semi-log plots and the values are the result of duplicate determinations. Initially a broad concentration curve was used and then a close concentration curve from which IC50 values were determined. Assays were done in duplicate and each point was the average of the two. Control cells grew to 5×10^6/ml.
Coulter counts were made daily and IC50 values determined after 48 hours exposure.
The subject of the next data set is calf thymus DNA. Kind of data set: Thermal denaturation study, DNA binding affinity (ΔTm). The note with it: 1:5 compound to base pair ratio.
A further data set has as its system poly(dA-dT). Described as above. The note with it: 1:5 compound to base pair ratio.
Data set [2] deals with T. b. rhodesiense KETRI 243. Kind of data set: In vitro trypanocidal activity, bloodforms in HMI-18 medium, Coulter counts. The format is cell-based, Trypanosoma brucei rhodesiense. As to conditions: 48 h exposure.
Data set [3] concerns T. b. brucei Lab 110 EATRO. The data set is described as follows: In vivo efficacy in infected mice. Further details: species or system Trypanosoma brucei brucei.
Procedure: Female Swiss-Webster mice (weight, 20 g) were infected (intraperitoneally) with 2.5×10^5 trypanosomes from rat blood, and the infection was allowed to develop for 24 h before drug treatment was begun. Groups of three mice each were injected (intraperitoneally) with each drug concentration. All of the experiments included a group of untreated controls. […] Parasitemia of animals dying of infection averaged 0.5-1.0×10^9/mL of blood. These infections are very predictable and daily counts were not done because of the labor involved. […] Animals were monitored weekly for parasites in tail vein blood smears. Mice were considered cured if they survived more than 30 days after the death of the last control with no parasites in tail vein blood smears. MSD (mean survival in days) was also recorded for each group. It is the average time of survival of the animals in the group, exclusive of cured animals.
Mice were infected with 250,000 parasites and dosing commenced 24 h. post infection. Mice were separated into groups of three and given single i.p doses for 3 days unless otherwise noted. Infected untreated controls were used for each experiment. Mice were considered cured if surviving more than 30 days beyond death of controls without parasites in tail vein blood smears. MSD, mean survival in days, exclusive of cured animals.
For data set [4], the system named is T. b. rhodesiense KETRI 2002. The data set is described as follows: In vivo efficacy in infected mice, clinical isolate. Further details: species or system Trypanosoma brucei rhodesiense.
Procedure: (§1) Female Swiss-Webster mice (weight, 20 g) were infected (intraperitoneally) with 2.5×10^5 trypanosomes from rat blood, and the infection was allowed to develop for 24 h before drug treatment was begun. Groups of three mice each were injected (intraperitoneally) with each drug concentration. All of the experiments included a group of untreated controls. […] Animals were monitored weekly for parasites in tail vein blood smears. Mice were considered cured if they survived more than 30 days after the death of the last control with no parasites in tail vein blood smears. MSD (mean survival in days) was also recorded for each group. It is the average time of survival of the animals in the group, exclusive of cured animals.
(§2) Mice were infected on day 1 with 2.5×10^5 trypanosomes and the infections allowed to progress 24 h. prior to dosing. Animals were dosed 1×/day i.p for 3 days. Cured animals survived >30 days beyond the death of untreated, infected controls. MSD=mean survival in days exclusive of cured animals. Dose as mg/kg/day.
Data set [5] concerns T. b. rhodesiense KETRI 1992. Described as above. Further details: species or system Trypanosoma brucei rhodesiense.
Procedure: as §1, §2
Where [6] appears, read: mice, 1, 2.5, 5, 10, 15, 25 mg/kg/day i.p. for 3 days (all doses failed to cure).
Where [7] appears, read: mice, 1, 2.5, 5, 10, 15, 25 mg/kg/day i.p. for 3 days (all doses).
The mark [8] stands for this setting: mice, 1 mg/kg/day i.p. for 3 days.
Setting [9] is: mice, 5 mg/kg/day i.p. for 3 days.
The mark [10] stands for this setting: mice, 10 mg/kg/day i.p. for 3 days.
Where [11] appears, read: mice, 15 mg/kg/day i.p. for 3 days.
The mark [12] stands for this setting: mice, 25 mg/kg/day i.p. for 3 days.
Where [13] appears, read: KETRI 2002, 1 mg/kg/day i.p. for 3 days.
The mark [14] stands for this setting: KETRI 2002, 5 mg/kg/day i.p. for 3 days.
[15] abbreviates: KETRI 2002, 10 mg/kg/day i.p. for 3 days.
The mark [16] stands for this setting: KETRI 2002, 25 mg/kg/day i.p. for 3 days.
The mark [17] stands for this setting: KETRI 1992, 1 mg/kg/day i.p. for 3 days.
The mark [18] stands for this setting: KETRI 1992, 5 mg/kg/day i.p. for 3 days.
Setting [19] is: KETRI 1992, 10 mg/kg/day i.p. for 3 days.
Setting [20] is: KETRI 2002, 15 mg/kg/day i.p. for 3 days.
The mark [21] stands for this setting: KETRI 1992, 25 mg/kg/day i.p. for 3 days.

Where two headings read alike, the source gives them in different places. Marks after values point to notes of the source that are not given here.
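Wherever DNA Binding Δ Tm Calf thymus is given: shift in midpoint melting temperature of calf thymus DNA thermal denaturation curves caused by compound binding, values averaged over at least two determinations.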
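Wherever DNA Binding Δ Tm Poly (dA-dT) is given: shift in the midpoint temperature of the thermal melting curve of poly(dA-dT), each value the mean of two or more independent determinations.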

Procedure for calf thymus DNA: (§3) The binding affinity was measured by determining the change in the midpoint (Tm) of the thermal denaturation curves of calf thymus DNA as well as poly(dA-dT) at a 1:5 compound to base pair ratio.
Procedure for poly(dA-dT): as §3

The term melting point denotes the temperature of the solid-liquid transition. The compound `CC(=O)O/N=C(\N)c1ccc(NC(=O)CCCC(=O)Nc2ccc(/C(N)=N/OC(C)=O)cc2)cc1` [TH724, N,N′-bis[4-(N-acetoxyamidino)phenyl]pentanediamide] yielded a melting point of 225 to 228 °C.

With `Cc1nc(-c2ccc(NC(=O)CCCC(=O)Nc3ccc(-c4noc(C)n4)cc3)cc2)no1` [TH728, N,N′-Bis[4-(5-Methyl-1,2,4-oxadiazol-3yl)phenyl]pentanediamide], the melting point fell in the range of 235 to 237 °C.

As for `CCCCCC(=O)ONC(=N)c1ccc(NC(=O)CCCC(=O)Nc2ccc(C(=N)NOC(=O)CCCCC)cc2)cc1` [TH742, N,N′-Bis[4-(N-Pentylcarbonyloxyamidino)phenyl]pentanediamide], the melting point lay within 182 to 184 °C.

Turning to `CCCCCc1nc(-c2ccc(NC(=O)CCCC(=O)Nc3ccc(-c4noc(CCCCC)n4)cc3)cc2)no1` [TH743, N,N′-Bis[4-(5-Pentyl-1,2,4-oxadiazol-3yl)phenyl]pentanediamide], the melting point was in the range of 171 to 173 °C.

The compound `C=CCCc1nc(-c2ccc(NC(=O)CCCC(=O)Nc3ccc(-c4noc(CCC=C)n4)cc3)cc2)no1` [TH745, N,N′-Bis[4-(5-3,4-Butene-1,2,4-oxadiazol-3yl)phenyl]pentanediamide] showed a melting point of 168 to 170 °C.

Turning to `N/C(=N\OC(=O)c1ccccc1)c1ccc(NC(=O)CCCC(=O)Nc2ccc(/C(N)=N/OC(=O)c3ccccc3)cc2)cc1` [TH746, N,N′-Bis[4-(N-Phenylcarbonyloxyamidino)phenyl]pentanediamide], the melting point lay within 253 to 255 °C.

Turning to `O=C(CCCC(=O)Nc1ccc(-c2noc(-c3ccccc3)n2)cc1)Nc1ccc(-c2noc(-c3ccccc3)n2)cc1` [TH747, N,N′-Bis[4-(5-Phenyl-1,2,4-oxadiazol-3yl)phenyl]pentanediamide], the melting point lay in the range of 255 to 257 °C.

By IC50 is commonly meant the concentration that gives 50% inhibition. `NNC(=O)c1ccc(N2CCN(c3ccc(C(=O)NN)cc3)CC2)cc1` [compound 0117, 4,4′-(1,4-Piperazinediyl)bisbenzenecarboxhydrazide] came in with a melting point of more than 300 °C. The IC50 in data set [1] (Trypanosoma brucei, 48 h) was determined as 240 nM. In the data set on calf thymus DNA, the “DNA Binding Δ Tm Calf thymus” value was 0.1 °C. The “DNA Binding Δ Tm Poly (dA-dT)” value with poly(dA-dT) came to 0.0 °C.

For `CCCCCCNC(=N)c1ccc(N2CCN(c3ccc(C(=N)NCCCCCC)cc3)CC2)cc1.Cl.Cl` [compound 0128], the half-inhibitory concentration (IC50) in data set [1] (48 h exposure, bloodforms) is 13 nM; in data set [2], 23.9 nM. In the data set on calf thymus DNA, the “DNA Binding Δ Tm Calf thymus” value stood at 10.7 °C. Besides, the “DNA Binding Δ Tm Poly (dA-dT)” value with poly(dA-dT) was 10.1 °C. Besides, in data set [3] (setting [6]), the “# Cured/#Treated (%)” value is 0/3^a. The MSD in data set [3] (setting [7]) lay within 5.3 to 10.6 days.

Regarding `Cl.Cl.N=C(NC1CCCCCC1)c1ccc(N2CCN(c3ccc(C(=N)NC4CCCCCC4)cc3)CC2)cc1` [compound 0129], the 50% inhibitory concentration (IC50) in data set [1] (48 h exposure, bloodforms) was found to be 18 nM; in data set [2], 22 nM. Also, the “DNA Binding Δ Tm Calf thymus” value in the data set with calf thymus DNA turned out to be 15.6 °C. For the same compound, in the data set on poly(dA-dT), the “DNA Binding Δ Tm Poly (dA-dT)” value was 18.7 °C. The “# Cured/#Treated (%)” value in data set [3] (setting [8]) is 0/3. Further, the MSD in data set [3] (setting [8]) was 7.5 days; in data set [3] (setting [9]), 9 days; in data set [3] (mice, 7.5 mg/kg/day i.p. for 3 days) it was more than 30 days; in data set [3] (setting [10]) it was more than 30 days; in data set [3] (setting [11]), more than 30 days.

Turning to `CCCCCCCCCCCCNC(=N)c1ccc(N2CCN(c3ccc(C(=N)NCCCCCCCCCCCC)cc3)CC2)cc1.Cl.Cl` [compound 0136], the IC50 in data set [1] (48 h exposure, bloodforms) came to 660 nM; in data set [2], 125 nM. In addition, the “DNA Binding Δ Tm Calf thymus” value with calf thymus DNA was 0.6 °C. The “DNA Binding Δ Tm Poly (dA-dT)” value with poly(dA-dT) was found to be 0.0 °C.

As to `CCC(C)CNC(=N)c1ccc(N2CCN(c3ccc(C(=N)NCC(C)CC)cc3)CC2)cc1.Cl.Cl` (stereo not shown) [compound 0138], the IC50 in data set [1] (48 h exposure, bloodforms) was determined as 13 nM; in data set [2], 39 nM. Further, the “DNA Binding Δ Tm Calf thymus” value in the data set on calf thymus DNA was found to be 12.9 °C. The “DNA Binding Δ Tm Poly (dA-dT)” value in the data set on poly(dA-dT) is 16.0 °C.

`CCNC(=N)c1ccc(N2CCN(c3ccc(C(=N)NCC)cc3)CC2)cc1.Cl.Cl` [compound 0140]: the IC50 in data set [1] (48 h exposure, bloodforms) is 13 nM; in data set [2] it was 33 nM. For the same compound, in the data set with calf thymus DNA, the “DNA Binding Δ Tm Calf thymus” value was 15.3 °C. The “DNA Binding Δ Tm Poly (dA-dT)” value in the data set on poly(dA-dT) amounted to 18.6 °C. In addition, in data set [3] (setting [8]), the “# Cured/#Treated (%)” value was 0/3. In addition, the MSD in data set [3] (setting [8]) was 5 days; in data set [3] (setting [9]), 18 days; in data set [3] (setting [10]), 17 days.

`N=C(N)c1ccc(OCc2ccc(COc3ccc(C(=N)N)cc3)cc2)cc1` [compound 0508]: the 50% inhibitory concentration (IC50) in data set [1] (48 h exposure, bloodforms) is 0.295 nM; in data set [2], 0.665 nM. Also, in the data set on calf thymus DNA, the “DNA Binding Δ Tm Calf thymus” value turned out to be 12.5 °C. Further, the “DNA Binding Δ Tm Poly (dA-dT)” value in the data set on poly(dA-dT) was determined as 18.0 °C. Moreover, in data set [3] (setting [6]), the “# Cured/#Treated (%)” value is given as 0/3^a. In data set [3] (setting [7]), the MSD was in the range of 5 to 17.3 days.

As for `N=C(N)c1ccc(OCc2ccccc2COc2ccc(C(=N)N)cc2)cc1` [compound 0513], the IC50 in data set [1] (48 h exposure, bloodforms) was 1.25 nM; in data set [2] it was 2.55 nM. Besides, the “DNA Binding Δ Tm Calf thymus” value in the data set on calf thymus DNA is −0.2 °C. Also, the “DNA Binding Δ Tm Poly (dA-dT)” value in the data set with poly(dA-dT) was −0.1 °C. Also, the “# Cured/#Treated (%)” value in data set [3] (setting [6]) is 0/3^a. The compound further displayed an MSD in data set [3] (setting [7]) of 5 days.

On to `N=C(N)c1ccc(COc2ccccc2OCc2ccc(C(=N)N)cc2)cc1` [compound 0519], for which the IC50 came to 1.3 nM in data set [1] (48 h exposure, bloodforms) and 2.1 nM in data set [2]. For the same compound, the “DNA Binding Δ Tm Calf thymus” value in the data set on calf thymus DNA was found to be 0.1 °C. In the data set on poly(dA-dT), the “DNA Binding Δ Tm Poly (dA-dT)” value is −0.1 °C. Moreover, the “# Cured/#Treated (%)” value in data set [3] (setting [6]) is recorded as 0/3^a. In data set [3] (setting [7]), this compound came in with an MSD of 5 days.

On to `N=C(N)c1ccc(NC(=O)CCCCCCC(=O)Nc2ccc(C(=N)N)cc2)cc1` [compound 0705], for which the 50% inhibitory concentration (IC50) in data set [1] (48 h exposure, bloodforms) is 2.8 nM; in data set [2], 1.45 nM. The MSD in data set [3] (setting [8]) was 10 days; in data set [3] (setting [9]), more than 30 days; in data set [3] (setting [10]), more than 30 days; in data set [3] (setting [12]), more than 30 days; in data set [4] (setting [13]), more than 30 days; in data set [4] (setting [14]), more than 30 days. Further, the MSD in data set [4] (setting [15]) is reported as more than 30 days; in data set [4] (setting [16]), more than 30 days; in data set [5] (setting [17]) it was 15.3 days; in data set [5] (setting [18]), 22.6 days; in data set [5] (setting [19]) it was 29.6 days. Moreover, the “#Cured/Total” value in data set [5] (setting [17]), in data set [5] (setting [18]) and in data set [5] (setting [19]) was 0/3 each time.

Regarding `N=C(N)c1ccc(NC(=O)CCCCCC(=O)Nc2ccc(C(=N)N)cc2)cc1` [compound 0706], the IC50 in data set [1] (48 h exposure, bloodforms) amounted to 1.62 nM; in data set [2] it was 2.05 nM. Moreover, the MSD in data set [3] (setting [8]), in data set [3] (setting [9]), in data set [3] (setting [10]), in data set [3] (setting [11]), in data set [4] (setting [13]) and in data set [4] (setting [14]) was more than 30 days each time. Also, the MSD is more than 30 days in data set [4] (setting [15]); more than 30 days in data set [4] (setting [20]); 14 days in data set [5] (setting [17]); 18.3 days in data set [5] (setting [18]); 18.6 days in data set [5] (setting [19]); 19.3 days in data set [5] (setting [21]). The “#Cured/Total” value in data set [5] (setting [17]), in data set [5] (setting [18]), in data set [5] (setting [19]) and in data set [5] (setting [21]) was 0/3 each time.

For the compound `N=C(N)c1ccc(NC(=O)CCCCCCCCC(=O)Nc2ccc(C(=N)N)cc2)cc1` [compound 0709], the IC50 in data set [1] (48 h exposure, bloodforms) stood at 2 nM; in data set [2] it was 4.1 nM. Moreover, the MSD in data set [3] (setting [8]) was 12 days; in data set [3] (setting [9]), more than 30 days; in data set [3] (setting [10]) it was more than 30 days; in data set [3] (setting [12]), more than 30 days; in data set [4] (setting [13]), 18 days; in data set [4] (setting [14]), 33 days. Moreover, the MSD in data set [4] (setting [15]) is recorded as more than 30 days; in data set [4] (setting [20]) it was more than 30 days; in data set [4] (setting [16]), more than 30 days; in data set [5] (setting [17]) it was 12.6 days; in data set [5] (setting [18]), 13.7 days; in data set [5] (setting [19]), 15.7 days. Also, in data set [5] (setting [21]), the MSD was determined as 26.6 days. Further, the “#Cured/Total” value in data set [4] (setting [13]), in data set [5] (setting [17]), in data set [5] (setting [18]), in data set [5] (setting [19]) and in data set [5] (setting [21]) was 0/3 throughout.
